Experimental data published in patent US20090221829A1 (priority 2005, published 2009).

Assays:
[1] = test system: Candida albicans(KCTC 1940), Aspergillus niger (ATCC 9642) and Saccharomyces cerevisiae; experiment: Relative antifungal activity by agar dilution method (vs Miconazole); format: cell-based;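 note: scores 5 to 7 mean a lower fungicidal concentration than Miconazole so higher is more potent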
Source text: Novel compounds represented by the above chemical formula (I), and the relative activities in accordance with the agar dilution method in Sabouraud dextrose agar media, Czapek agar media and Yeast Extract-Peptone-Dextrose agar media for Candida albicans(KCTC 1940), Aspergillus niger (ATCC 9642) and Saccharomyces cerevisiae are described respectively in following Table 1.

various kinds of Candida = experiment: MIC (Minimal Inhibitory Concentration) data; format: cell-based; details: unit assumed
[2] = molecular target: sterol-24-methyl transferase (Candida albicans, UniProt O74198); format: biochemical; details: in vitro, read-out: Relative Activity (IC50 class)
Source text: Moreover, the relative activity for sterol-24-methyl transferase of the above compound in Table 11 is described in Table 13.

Sequence of sterol-24-methyl transferase (O74198 whole entry): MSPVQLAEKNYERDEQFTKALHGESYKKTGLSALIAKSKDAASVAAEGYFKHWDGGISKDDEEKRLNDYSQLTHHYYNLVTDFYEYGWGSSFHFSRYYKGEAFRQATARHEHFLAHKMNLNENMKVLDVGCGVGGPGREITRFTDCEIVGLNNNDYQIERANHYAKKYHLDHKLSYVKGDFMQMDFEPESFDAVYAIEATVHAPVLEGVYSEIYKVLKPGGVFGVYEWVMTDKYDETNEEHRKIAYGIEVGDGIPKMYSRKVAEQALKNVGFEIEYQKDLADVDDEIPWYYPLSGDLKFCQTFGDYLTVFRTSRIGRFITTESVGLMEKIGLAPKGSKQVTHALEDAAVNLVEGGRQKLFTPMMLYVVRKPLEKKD

SMILES | Relative Activity ([1]; agar dilution method, fungicidal concentration relative to control drug Miconazole (=4)) | MIC (various kinds of Candida; C. albicans ATCC 11651) | MIC (various kinds of Candida; C. albicans ATCC 28838) | MIC (various kinds of Candida; C. albicans IFO 1385) | MIC (various kinds of Candida; C. albicans OY-003) | MIC (various kinds of Candida; C. albicans OY-019) | MIC (various kinds of Candida; C. albicans U.K) | MIC (various kinds of Candida; C. glabrata) | MIC (various kinds of Candida; C. glulliermondi) | MIC (various kinds of Candida; C. krusei (KCTC7273)) | MIC (various kinds of Candida; C. parapsilosis) | IC50 [2] | Relative Activity ([1]; antifungal activity relative to Miconazole, agar dilution)
CCCCCCCCCCCC1=[N+](Cc2ccc(N)cc2)CCc2cc(OC)c(OC)cc21.Cl.[Cl-] [Compound No. 121, 3,4-dihydro-6,7-dimethoxy-2-(4-ammoniumphenyl)methyl-1-undecylisoquinolinium dichloride] | 2 | 3.12 µg/mL | 0.78 µg/mL | 1.56 µg/mL | 3.12 µg/mL | 3.12 µg/mL | 3.12 µg/mL | 1.56 µg/mL | 0.78 µg/mL | 1.56 µg/mL | 1.56 µg/mL | 5 to 50 µM | –
COc1cc2cc[n+](Cc3cccc(OC)c3OCc3c(F)c(F)c(C(F)(F)F)c(F)c3F)c(CCc3ccc(C(C)(C)C)cc3)c2cc1OC.[Cl-] [Compound No. 151, 1-(2-(4-t-butylphenyl))ethyl-2-(2-(2,3,5,6-tetrafluoro-4-trifluoromethylbenzyloxy)-3-methoxyphenyl)methyl-6,7-dimethoxyisoquinolinium chloride] | – | 3.12 µg/mL | 3.12 µg/mL | 6.25 µg/mL | 1.56 µg/mL | 3.12 µg/mL | 1.56 µg/mL | 3.25 µg/mL | 1.56 µg/mL | 1.56 µg/mL | 12.5 µg/mL | < 5 µM | 1
